The results in this text go back to ChEMBL document CHEMBL4725412, “Augmenting the Activity of Macrolide Adjuvants against Acinetobacter baumannii” (2020).

Type in all cases: functional
Assay [1] relates to Acinetobacter baumannii. Briefly: Antibacterial activity against Acinetobacter baumannii 4026 assessed as reduction in microbial growth incubated for 16 hrs by broth microdilution method.
In assay [2] the test system is Acinetobacter baumannii. Briefly: Potentiation of clarithromycin-induced antibacterial activity against Acinetobacter baumannii 4027 assessed as fold reduction in clarithromycin MIC at 7.5 uM incubated for 16 hrs by broth microdilution method. (In general: Dilution methods test growth across graded concentrations, often in twofold steps.)
Assay [3] relates to Acinetobacter baumannii. Put plainly: Potentiation of clarithromycin-induced antibacterial activity against Acinetobacter baumannii AB5075 assessed as clarithromycin MIC at 5 uM incubated for 16 hrs by broth microdilution method (reference value: […] ug/ml).
Assay [4] relates to Acinetobacter baumannii. Briefly: Antibacterial activity against Acinetobacter baumannii 4025 assessed as reduction in microbial growth incubated for 16 hrs by broth microdilution method.
The test system of assay [5] is Acinetobacter baumannii. Put plainly: Potentiation of clarithromycin-induced antibacterial activity against Acinetobacter baumannii 4448 assessed as fold reduction in clarithromycin MIC at 7.5 uM incubated for 16 hrs by broth microdilution method.
Assay [6] deals with Acinetobacter baumannii. Briefly: Potentiation of clarithromycin-induced antibacterial activity against Acinetobacter baumannii 4795 assessed as fold reduction in clarithromycin MIC at 7.5 uM incubated for 16 hrs by broth microdilution method.
For assay [7], the system named is Acinetobacter baumannii. Briefly: Potentiation of clarithromycin-induced antibacterial activity against Acinetobacter baumannii AB5075 assessed as clarithromycin MIC at 15 uM incubated for 16 hrs by broth microdilution method (reference value: […] ug/ml).
Assay [8] relates to Acinetobacter baumannii. Put plainly: Antibacterial activity against Acinetobacter baumannii 4052 assessed as reduction in microbial growth incubated for 16 hrs by broth microdilution method.
The test system of assay [9] is Acinetobacter baumannii. Briefly: Potentiation of clarithromycin-induced antibacterial activity against Acinetobacter baumannii 3806 assessed as fold reduction in clarithromycin MIC at 7.5 uM incubated for 16 hrs by broth microdilution method.
Assay [10] relates to Acinetobacter baumannii. Put plainly: Potentiation of clarithromycin-induced antibacterial activity against Acinetobacter baumannii 5711 assessed as fold reduction in clarithromycin MIC at 7.5 uM incubated for 16 hrs by broth microdilution method.

The structures appear in SMILES notation.

As a reminder, the MIC is the lowest concentration found to suppress growth. For `Cl.Nc1nc(-c2ccc(NC(=O)Nc3cc(Br)cc(Br)c3)cc2)c[nH]1`, the MIC was determined as 25 µM with Acinetobacter baumannii [1]; 4 µg/mL in the assay with Acinetobacter baumannii [3]; 25 µM with Acinetobacter baumannii [4]; 0.125 µg/mL in the assay with Acinetobacter baumannii [7]; 25 µM in the assay on Acinetobacter baumannii [8]. Moreover, the “fold change (FC)” value in the assay on Acinetobacter baumannii [2], with Acinetobacter baumannii [5], with Acinetobacter baumannii [6], in the assay with Acinetobacter baumannii [9] and in the assay on Acinetobacter baumannii [10] was 16 in each case.
